{"source": "patent US20250049819A1", "about": "“METHODS FOR TREATING AND PREVENTING C. DIFFICILE INFECTION” (Paratek Pharmaceuticals, Inc., priority 2016, published 2025)", "key": {"[1]": {"system": "C. difficile PCR ribotype 027 strain 210", "experiment": "In vitro human gut model, C. difficile germination, proliferation and toxin production (Example 4)", "type": "cell-based", "procedure": "(§1) The gut model was inoculated with pooled fecal slurry (5 volunteers ≥60 years of age with no history of antibiotic therapy in the previous 3 months) and left for 2 weeks to allow the bacterial populations to achieve steady state. A single inoculum (˜10^7 cfu/mL) of C. difficile spores (PCR ribotype 027 strain 210) was added into vessel 1 of the gut model on day 14. One week later, on day 21, a second aliquot of C. difficile spores was added, and antibiotic instillation commenced. Model A (LHS) was exposed to moxifloxacin (43 mg/L, once daily, for 7 days) and Model B (RHS) was exposed to omadacycline (430 mg/L, once daily, for 7 days) commenced on day 21.\n(§2) Bacterial populations in the gut model were monitored using selective agars to count viable bacterial colonies. Populations were monitored every other day for the first 2 weeks until the steady state was reached, and daily thereafter. C. difficile populations were monitored in all three vessels, and all other bacterial groups (total obligate anaerobes, total facultative anaerobes, lactose fermenting Enterobacteriaceae, Enterococci, total Clostridia, Lactobacilli, Bifidobacteria and B. fragilis group) were monitored in vessels 2 and 3 only. Vessel 3, which represents the distal colon, is of most physiological relevance in terms of propensity to induce CDI. C. difficile total viable counts and spores counts were monitored using viable counting and a differential alcohol shock viable count on selective agars. From day 14 onwards C. difficile cytotoxin was measured using a quantitative VERO cell cytotoxicity assay. Samples of 1 mL each were centrifuged at 16,000×g for 15 minutes, and the supernatants were removed. Six 1:10 serial dilutions (to 10^−6) of culture supernatants from the gut model were prepared. Twenty microliters of the appropriate dilution was added to VERO cell monolayers and a further 20 μL of C. sordellii antitoxin (diluted 1:10 in sterile distilled water) was placed in the corresponding antitoxin row. Monolayers were examined after 24 and 48 hours of incubation in 5% CO2, with a positive result indicated by the presence of cell rounding with concurrent neutralization of the effect by C. sordellii antitoxin. Cytotoxin titers (relative units, RU) were an arbitrary log10 scale, and the cytotoxin titer is reported in the highest dilution with >70% cell rounding, i.e. 10^0=1 RU, 10^−1=2 RU, 10^−2=3 RU. Samples were taken daily from day 21 onwards to determine antimicrobial concentrations in the gut model vessels by a bioassay. Concentrations of moxifloxacin were determined using Isosensitest agar with Escherichia coli as the indicator organism. Concentrations of omadacyline were determined using Wilkins Chalgren agar with Kocuria rhizophila as the indicator organism."}, "[2]": {"system": "gut microflora populations", "experiment": "In vitro human gut model, gut microflora populations (Example 4)", "type": "cell-based", "procedure": "as §1, §2"}, "[3]": {"conditions": "vessels 2 and 3, once daily for 7 days"}}}
{"smiles": "CN(C)c1cc(CNCC(C)(C)C)c(O)c2c1C[C@H]1C[C@H]3[C@H](N(C)C)C(O)=C(C(N)=O)C(=O)[C@@]3(O)C(O)=C1C2=O", "note": "(stereo in doubt) [Omadacycline]", "values": [{"measurement": "C. difficile spore germination / vegetative cell proliferation", "setting": "[1]; all three vessels", "value": "no vegetative cell proliferation observed"}, {"measurement": "C. difficile toxin detection (VERO cell cytotoxicity assay)", "setting": "[1]; all vessels", "value": "No toxin was detected"}, {"measurement": "signs of simulated CDI", "setting": "[1]; once daily for 7 days, omadacycline 430 mg/L, moxifloxacin 43 mg/L", "value": "did not lead to any signs of simulated CDI"}, {"measurement": "recovery of populations after end of dosing", "setting": "[2]; all populations", "value": "returned to pre-antibiotic exposure levels by the end of the experiment"}, {"measurement": "Enterobacteriaceae populations", "setting": "[2]; particularly in vessel 2", "value": "increased during omadacycline exposure"}, {"measurement": "decline in B. fragilis group", "setting": "[2]; [3]", "value": "~8", "unit": "log10 cfu/mL"}, {"measurement": "decline in Bifidobacteria", "setting": "[2]; [3]", "value": "~8", "unit": "log10 cfu/mL"}, {"measurement": "decline in Enterococcus spp. / Enterococci populations", "setting": "[2]; [3]", "value": "~6", "unit": "log10 cfu/mL"}, {"measurement": "decline in Lactobacilli", "setting": "[2]; [3]", "value": "~6", "unit": "log10 cfu/mL"}, {"measurement": "decrease in Clostridia", "setting": "[2]; [3]", "value": "~5", "unit": "log10 cfu/mL"}, {"measurement": "decrease in lactose fermenting Enterobacteriaceae", "setting": "[2]; [3]", "value": "~5", "unit": "log10 cfu/mL"}, {"measurement": "overall decline in total anaerobe populations", "setting": "[2]; [3]", "value": "~5", "unit": "log10 cfu/mL"}, {"measurement": "total facultative anaerobes", "setting": "[2]; [3]", "value": "remained fairly stable throughout"}]}
